The test system of data set [1] is Saccharomyces cerevisiae. In words: Antifungal activity against Saccharomyces cerevisiae BY4743 assessed as fungal growth inhibition incubated for 24 hrs by plate reader method. As to conditions: BY4743, 24 h. Type of data set: functional, organism-based.
The test system of a further data set is Acinetobacter baumannii. In words: Antibacterial activity against Acinetobacter baumannii ATCC 19606 assessed as inhibition of bacterial growth measured after 18 hrs by resazurin dye based analysis. Type of data set: functional.
Data set [2] has as its system Saccharomyces cerevisiae. Kind of data set: Antifungal activity against Saccharomyces cerevisiae PA3-10-3 variant assessed as fungal growth inhibition incubated for 24 hrs by plate reader method. Type of data set: functional, organism-based.
Data set [3] has as its system Saccharomyces cerevisiae. Kind of data set: Antifungal activity against Saccharomyces cerevisiae YJM789 assessed as fungal growth inhibition incubated for 24 hrs by plate reader method. Type of data set: functional, organism-based. Particulars: YJM789, 24 h.
Another data set relates to Candida albicans. In words: Antifungal activity against Candida albicans ATCC 90028 assessed as fungal growth inhibition incubated for 36 hrs by resazurin dye based analysis. Type of data set: functional. (In general: Resazurin is reduced to fluorescent resorufin, in cell work by metabolically active cells.)
A further data set concerns Cryptococcus neoformans. Kind of data set: Antifungal activity against Cryptococcus neoformans ATCC 208821 assessed as fungal growth inhibition incubated for 36 hrs by resazurin dye based analysis. Type of data set: functional.
Data set [4] has as its system Pseudomonas aeruginosa. In words: Antibacterial activity against Pseudomonas aeruginosa ATCC 27853 assessed as inhibition of bacterial growth measured after 18 hrs by resazurin dye based analysis. Type of data set: functional.
A short description of data set [5]: Cytotoxicity against HEK293 cells assessed as cell growth inhibition measured after 20 hrs by resazurin dye based assay. Type of data set: toxicity. As to conditions: human.
The subject of a further data set is Klebsiella pneumoniae. In words: Antibacterial activity against Klebsiella pneumoniae ATCC 700603 assessed as inhibition of bacterial growth measured after 18 hrs by resazurin dye based analysis. Type of data set: functional.
Data set [6] has as its system Escherichia coli. In words: Antibacterial activity against Escherichia coli ATCC 25922 assessed as inhibition of bacterial growth measured after 18 hrs by resazurin dye based analysis. In kind it is functional.
Another data set relates to Staphylococcus aureus. Kind of data set: Antibacterial activity against methicillin-resistant Staphylococcus aureus ATCC 43300 assessed as inhibition of bacterial growth measured after 18 hrs by resazurin dye based analysis. In kind it is functional.
For data set [7], the system named is Escherichia coli. In words: Antibiotic adjuvant activity against Escherichia coli ATCC 25922 assessed as erythromycin MIC measured after 18 hrs in presence of erythromycin. Type of data set: functional.
Data set [8] is described as follows: Selectivity index, ratio of IC50 for HEK293 to MIC for methicillin-resistant Staphylococcus aureus ATCC 43300. Particulars: human, HEK293 cells; read-out: Selectivity Index. In kind it is toxicity.
The test system of data set [9] is Pseudomonas aeruginosa. Kind of data set: Antibiotic adjuvant activity against Pseudomonas aeruginosa ATCC 27853 assessed as doxycycline MIC measured after 18 hrs in presence of doxycycline. In kind it is functional.

The structures appear in SMILES notation. Bounds are passed on as bounds.

For orientation: IC50 means the point on the concentration scale where inhibition reaches its midpoint. By MIC is commonly meant the lowest concentration found to suppress growth.

For the compound `C[C@]1(C(=O)O)CCC[C@]2(C)c3cc(OC(=O)CCCNCCCCCCCCCCNCCCNC(=O)Oc4ccc5c(c4)[C@@]4(C)CCC[C@](C)(C(=O)O)[C@@H]4CC5)ccc3CC[C@@H]12.O=C(O)C(F)(F)F.O=C(O)C(F)(F)F`, the IC50 is 3.59 µM in the data set with Saccharomyces cerevisiae [1], more than 25 µM in the data set on Saccharomyces cerevisiae [2] and 14.3 µM with Saccharomyces cerevisiae [3]. Besides, the MIC in the data set with Acinetobacter baumannii was more than 28.7 µM; in the data set on Candida albicans it was more than 28.7 µM; with Cryptococcus neoformans, 7.17 µM; in the data set with Pseudomonas aeruginosa [4] it was more than 28.7 µM; in the data set on Klebsiella pneumoniae it was more than 28.7 µM; in the data set on Escherichia coli [6], more than 28.7 µM. Besides, in the data set on Staphylococcus aureus, the MIC is more than 28.7 µM. In data set [5], the IC50 at 20 h is more than 28.7 µM.

Turning to `C[C@]1(C(=O)NCCCNCCCCNCCCNC(=O)[C@@]2(C)CCC[C@]3(C)c4cc(O)ccc4CC[C@@H]23)CCC[C@]2(C)c3cc(O)ccc3CC[C@@H]12.O=C(O)C(F)(F)F.O=C(O)C(F)(F)F`, the MIC in the data set with Acinetobacter baumannii was more than 33.9 µM; in the data set on Candida albicans it was more than 33.9 µM; in the data set on Cryptococcus neoformans it was 17 µM; in the data set with Pseudomonas aeruginosa [4] it was more than 33.9 µM; with Klebsiella pneumoniae, more than 33.9 µM; in the data set on Escherichia coli [6], more than 33.9 µM. Also, the values for the MIC in the data set on Escherichia coli [7] and in the data set with Staphylococcus aureus were 26.5 µM and not above 0.26 µM, respectively. For the same compound, in data set [5], the IC50 at 20 h was more than 33.9 µM. Besides, the selectivity ratio in data set [8] is more than 130.

As to `C[C@]1(C(=O)NCCCNCCCCCCCCCCCCN)CCC[C@]2(C)c3cc(OC(=O)NCCCNCCCCCCCCCCCCN)ccc3CC[C@@H]12.O=C(O)C(F)(F)F.O=C(O)C(F)(F)F.O=C(O)C(F)(F)F.O=C(O)C(F)(F)F`, the MIC is 6.38 µM in the data set with Acinetobacter baumannii; 25.5 µM in the data set with Candida albicans; more than 25.5 µM with Cryptococcus neoformans; more than 25.5 µM with Pseudomonas aeruginosa [4]; 50 µM in the data set on Pseudomonas aeruginosa [9]; 12.8 µM in the data set on Klebsiella pneumoniae. For the same compound, the MIC in the data set on Escherichia coli [6] and in the data set on Staphylococcus aureus was not above 0.2 µM throughout. In addition, the IC50 at 20 h in data set [5] worked out at 0.33 µM.

For the compound `C[C@]1(C(=O)NCCCNCCCCCCCCCCCCN)CCC[C@]2(C)c3cc(O)ccc3CC[C@@H]12.O=C(O)C(F)(F)F.O=C(O)C(F)(F)F`, the MIC in the data set on Acinetobacter baumannii was 43.1 µM; with Candida albicans, 43.1 µM; in the data set with Cryptococcus neoformans, 43.1 µM; in the data set on Pseudomonas aeruginosa [4], more than 43.1 µM; in the data set with Klebsiella pneumoniae, more than 43.1 µM; in the data set on Escherichia coli [6], 43.1 µM. Further, in the data set on Staphylococcus aureus, the MIC is 5.4 µM. Besides, the IC50 at 20 h in [5] worked out at 26.2 µM. Also, the selectivity ratio in [8] is 4.9.

In the case of `C[C@]1(C(=O)NCCCNCCCCN)CCC[C@]2(C)c3cc(OC(=O)NCCCNCCCCN)ccc3CC[C@@H]12.O=C(O)C(F)(F)F.O=C(O)C(F)(F)F.O=C(O)C(F)(F)F.O=C(O)C(F)(F)F`, the MIC in the data set with Acinetobacter baumannii was more than 31.1 µM; in the data set on Candida albicans, more than 31.1 µM; in the data set with Cryptococcus neoformans it was more than 31.1 µM; in the data set on Pseudomonas aeruginosa [4], more than 31.1 µM; with Pseudomonas aeruginosa [9], 25 µM; in the data set with Klebsiella pneumoniae, more than 31.1 µM. In addition, the MIC in the data set on Escherichia coli [6] is more than 31.1 µM; with Escherichia coli [7], 25 µM; in the data set on Staphylococcus aureus, more than 31.1 µM. For the same compound, the IC50 at 20 h in data set [5] is more than 31.1 µM.

Turning to `C[C@@]12CCC[C@](C)(C(=O)O)[C@H]1CCc1ccc(OC(=O)CCCNCCCCCCNCCCNC(=O)Oc3ccc4c(c3)[C@@]3(C)CCC[C@](C)(C(=O)O)[C@@H]3CC4)cc12.O=C(O)C(F)(F)F.O=C(O)C(F)(F)F`, the IC50 in the data set with Saccharomyces cerevisiae [1] came to 3.59 µM; in the data set on Saccharomyces cerevisiae [3] it was 14.3 µM. Further, the MIC in the data set on Acinetobacter baumannii is more than 30.2 µM; with Candida albicans it was 30.2 µM; in the data set on Cryptococcus neoformans, 30.2 µM; in the data set with Pseudomonas aeruginosa [4] it was more than 30.2 µM; in the data set on Klebsiella pneumoniae it was more than 30.2 µM; in the data set on Escherichia coli [6], more than 30.2 µM. For the same compound, the MIC in the data set on Staphylococcus aureus turned out to be 30.2 µM. In [5], the IC50 at 20 h was more than 30.2 µM.

`C[C@]1(C(=O)NCCCNCCCCCCCCCCN)CCC[C@]2(C)c3cc(OC(=O)NCCCNCCCCCCCCCCN)ccc3CC[C@@H]12.O=C(O)C(F)(F)F.O=C(O)C(F)(F)F.O=C(O)C(F)(F)F.O=C(O)C(F)(F)F`: the MIC is more than 26.7 µM with Acinetobacter baumannii; more than 26.7 µM in the data set with Candida albicans; more than 26.7 µM in the data set on Cryptococcus neoformans; more than 26.7 µM with Pseudomonas aeruginosa [4]; 50 µM in the data set with Pseudomonas aeruginosa [9]; more than 26.7 µM with Klebsiella pneumoniae. Further, the MIC in the data set with Escherichia coli [6] is more than 26.7 µM; in the data set on Escherichia coli [7], 3.12 µM; in the data set with Staphylococcus aureus, 26.7 µM. Besides, in data set [5], the IC50 at 20 h came out at 20.6 µM.

For `C[C@]1(C(=O)NCCCNCCCCCCN)CCC[C@]2(C)c3cc(OC(=O)NCCCNCCCCCCN)ccc3CC[C@@H]12.O=C(O)C(F)(F)F.O=C(O)C(F)(F)F.O=C(O)C(F)(F)F.O=C(O)C(F)(F)F`, the MIC with Acinetobacter baumannii, with Candida albicans, in the data set on Cryptococcus neoformans, in the data set on Pseudomonas aeruginosa [4], with Klebsiella pneumoniae and in the data set with Escherichia coli [6] was more than 29.5 µM throughout. Besides, the MIC in the data set with Escherichia coli [7] was 50 µM; with Staphylococcus aureus it was more than 29.5 µM. In addition, the IC50 at 20 h in data set [5] was more than 29.5 µM.

For the origin of these results see ChEMBL document CHEMBL5143685, “Valorisation of the diterpene podocarpic acid - Antibiotic and antibiotic enhancing activities of polyamine conjugates” (Bioorg Med Chem, 2022).
